Measurements reported in patent publication US20220339259A1, “ORALLY DELIVERED THERAPEUTICAL COMPOSITION AND USE THEREOF” (priority 2019, published 2022).
Read-outs that look alike come from different tables or passages of the source.

Experiments:
[1] = Plasma ibrutinib level by HPLC after oral gavage; set-up: species or system mice; settings: mouse, in vivo
Method: FIG. 16A-FIG. 16B. Examples of representative HPLC data. Plasma ibrutinib levels were measured by HPLC 3 hours after mice were treated by oral gavage with an equal amount of free ibrutinib and LCFA-ibrutinib. The ibrutinib peaks are indicated with arrows. There was a 3-fold increase in plasma ibrutinib level in mice treated with LCFA-ibrutinib (B) compared with those treated with free ibrutinib (A) based on the measurements of the area under the curve (AUC).
LCFA-conjugated ibrutinib was synthesized and characterized (FIG. 15A-FIG. 15C). To compare drug uptake between free ibrutinib and LCFA-ibrutinib, mice were treated with an equal amount of free ibrutinib or LCFA-ibrutinib. Blood samples were collected at different time points, and analyzed for ibrutinib content by HPLC. Area under the curve (AUC) of ibrutinib was calculated to evaluate plasma drug concentration (FIG. 16A-FIG. 16B).

[2] = cited from earlier work
[3] = Intraperitoneal glucose tolerance test, GLP-1-Lys^26-LCFA in acid-neutralized mice; format: in vivo, male C57BL/6 mice
Method: FIG. 12. Additional examples of representative glucose tolerance assay results. Glucose tolerance assays were performed after treatment with free GLP-1 analogue or GLP-1-Lys^26-LCFA. Each mouse was treated orally with 100 μL 1M NaHCO3 to neutralize acid in the gastric fluid as described before. After 1 minute, the mice were treated p.o. with PBS, 100 μg free GLP-1 analogue (GLP-1), or 100 μg GLP-1-Lys^26-LCFA. The mice were then challenged with intraperitoneal injection of 2 g/kg glucose 1 hour after treatment.
Intraperitoneal GTT was performed in male C57BL/6 mice. Briefly, 6 to 12-week-old male C57BL/6 mice were fasted overnight and treated with 100 μL 1M NaHCO3 to neutralize acid in the gastric fluid. One minute later, the mice were treated with PBS, 100 μg GLP-1 analogue, or 100 μg GLP-1-Lys^26-LCFA by oral gavage, respectively. All mice were then treated with 2 g/kg glucose by intraperitoneal injection 1 hour later. Blood samples were collected to measure blood glucose levels. Area under the curve (AUC) of blood glucose was calculated to evaluate hypoglycemic response to each treatment (FIG. 12).

[4] = in human; co-formulated with SNAC; cited from earlier work
[5] = test system: c-Myc; test: Knockdown of c-Myc expression in Caco-2 cells (Western blot); format: cell-based, human; settings: 200 nM, without transfection reagent, 3 days
Method: FIG. 18. Examples of representative measurement data of protein expression. Western blot was performed to measure the suppression of c-Myc expression by LCFA-conjugated miR-34a mimic 3 days after Caco-2 cells were treated. c-Myc is a known target of miR-34a. Its expression level was detected both after a short exposure (short expo) and a relatively long exposure (long expo).
Caco-2 cells were seeded in 6-well cell culture plates, and treated (without any transfection reagent) with 200 nM free scramble siRNA (Scr), 200 nM free miR-34a mimic (miR-34a), or 200 nM LCFA-conjugated miR-34a (FA-miR-34a), respectively. Cells were harvested 3 days later, and lysed to prepare protein samples. Equal amount of protein samples was loaded in 10% SDS-polyacrylamide gels for Western blot analysis. The c-Myc protein was detected with an anti-c-Myc antibody. c-Myc expression levels were detected after both a short-time exposure (short expo) and relatively long-time exposure (long expo). β-Actin was served as an expression control (FIG. 18).

[6] = test system: Caco-2 cells; test: Uptake of fatty acid-Ex4 conjugate by Caco-2 cells; format: cell-based, human; settings: Alexa594-labeled conjugates; incubation for one hour
Method: FIG. 10. Examples of representative results of Caco-2 cell uptake. The fatty acid-conjugated Ex4 molecules were incubated with Alexa594 (fluorescent dye)-labeled Ex4-Lys^27-LCFA having 12, 16 and 18 carbon fatty acids (C12, C16, C18, respectively) and Ex4-Lys^27-SCFA (short chain fatty acid having 8 carbons, shown as C8) and were taken up by the cells. Levels of uptake were determined based on fluorescent intensity (MFI) inside the cells.
Coco-2 cells were seeded in cell culture plates. Cells were incubated with either fluorescently labeled Ex4-Lys^27-SCFA (C8) or one of the fluorescently labeled Ex4-Lys^27-LCFA having a C12, C16 and C18 LCFA. After incubation for one hour, cells were washed with PBS to remove fatty acid-conjugated Ex4. A plate reader was applied to measure fluorescent intensity in each well in the cell culture plate, and the results were compared (FIG. 10).

[7] = Intraperitoneal glucose tolerance test, Ex4-Lys^27-LCFA in acid-neutralized mice; format: in vivo, male C57BL/6 mice
Method: FIG. 11. […] Each mouse was treated orally with 100 μL 1M NaHCO3 to neutralize acid in the gastric fluid. […] The mice were then challenged with intraperitoneal injection of 2 g/kg glucose 1 hour after treatment.
Intraperitoneal glucose tolerance test (GTT) was performed in male C57BL/6 mice. Briefly, 6 to 12-week-old male C57BL/6 mice were fasted overnight and treated by oral gavage with 100 μL 1M NaHCO3 to neutralize acid in the gastric fluid. One minute later, the mice were treated with PBS, 100 μg Ex4, or 100 μg Ex4-Lys^27-LCFA by oral gavage, respectively. All mice were then treated with 2 g/kg glucose by intraperitoneal injection 1 hour later. Blood samples were collected to measure blood glucose levels. Area under the curve (AUC) of blood glucose was calculated to evaluate hypoglycemic response to each treatment (FIG. 11).

[8] = 100 μg p.o. after 100 μL 1M NaHCO3, 2 g/kg glucose i.p. 1 hour after treatment, 15 minutes after challenge
[9] = 100 μg p.o. after NaHCO3, 2 g/kg glucose i.p. 1 hour later

## C=CC(=O)N1CCCC(n2nc(-c3ccc(Oc4ccccc4)cc3)c3c(NC(=O)CCCCCCCCCCCCCCCCC(=O)O)ncnc32)C1 (centres unmarked) [LCFA-ibrutinib]
[1]
  Area under the curve (AUC) of ibrutinib in plasma (HPLC): 6.428
[1]; 3 h
  increase in plasma ibrutinib level compared with free ibrutinib (based on AUC): 3 fold

## C=CC(=O)N1CCC[C@@H](n2nc(-c3ccc(Oc4ccccc4)cc3)c3c(N)ncnc32)C1 [ibrutinib]
[2]; fasting state
  oral bioavailability: 3.9%
[2]; fed state
  oral bioavailability: 8.4%

## free GLP-1: GLP-1 analogue with AIB at position 8 (SEQ ID. 2), unconjugated
[3]; [8]
  blood glucose level after glucose challenge: high blood glucose levels
[3]; [9]
  controlling blood glucose level after gavage in the acid-neutralized GI track: not

## semaglutide
[4]
  oral bioavailability: barely detectable

## miR-34a: free microRNA-34a mimic duplex (SEQ ID. 3 and 4), unconjugated control (chain 1 UGGCAGUGUCUUAGCUGGUUGUTT; chain 2 ACAACCAGCUAAGACACUGCCATT; sense strand nucleotides 20 and 21 methylated, type of methylation not given here)
[5]
  suppression of c-Myc expression: not

## Ex4-Lys^27-LCFA: conjugated long-chain fatty acid and exendin-4 through lysine residue 27; C12, C16 and C18 dicarboxylic acids used
[6]
  levels of uptake by Caco-2 cells (fluorescent intensity, MFI): high uptake
[7]; [8]
  blood glucose level after glucose challenge: mild increase in blood glucose level
[7]; [9]
  controlling blood glucose level after gavage in the acid-neutralized GI track: effective in controlling blood glucose level
